In patent publication US9630894B2, “Energy efficient method and apparatus for the extraction of biomolecules from dilute aqueous solution” (DYNASEP INC., priority 2012, dated 2017):
Each block holds one compound with its values, some of them ahead of it.

Test: CCC extraction with DME of clarified fermentation broth from Clostridium acetobutylicum, GC and DNS assay
Type: physicochemical
Protocol: This example describes three different runs of the CCC with fermentation broth from Clostridium acetobutylicum. […] The fermentation was intentionally interrupted prior to completion.
The extraction column operated at room temperature (˜25° C.) throughout the column. Periodic extract and raffinate samples were taken and analyzed for the constituents in the extract and raffinate discharges.
This example describes three different runs. In all cases, the mass of solvent to the mass of feed ratio (S/F) was 0.9. In all example the fermentation broth was first centrifuged to removal all cellular matter. Thus, the feed solution was clarified. In the case of the first run, the following components were measured via gas chromatograph (GC) analysis using external standard calibration. The external standard was run prior to analyzing the samples to provide individual calibration between peak area and the respective constituent under measure. […] Acetate was the conjugate base of acetic acid. Butyrate was the conjugate base of butyric acid. All components were quantified in the extract and raffinate. Since the extract and raffinate are mostly water and DME dissolves in water to approximately 20 wt. %, the samples were allowed to degas over a 24 hour period.
During the run, samples were taken of the extract and raffinate. In the case of the extract, the bulk DME was removed by reduction of pressure and addition of heat to flash the DME from the water and other solution constituents.
Extract and raffinate samples were collected at periodic intervals during the CCC testing. […] Glucose was measured via a DNS (3,5-dinitrosalicylic acid) assay.
In cases where the extract formed a two phase solution, the extract samples were diluted with distilled water to create a single phase and homogenous sample prior to GC. The dilution factor was then used to correct the GC measurements for concentrations prior to dilution.

[1] = Run 3, Extract Bot, time 31 min
[2] = Run 3, Extract Bot, time 37 min
[3] = Run 3, Extract Top, time 31 min
[4] = Run 3, Extract Top, time 37 min

extraction into DME (Run 1, pH greater than 5.5): not extracted | concentration in sample [1]: 480 µg/mL | concentration in sample [2]: 0 µg/mL | concentration in sample [3]: 400 µg/mL | concentration in sample [4]: 370 µg/mL | concentration in sample (Run 3, Extract, time 22 min): 410 µg/mL | concentration in sample (Run 3, Extract, time 27 min): 0 µg/mL | concentration in sample (Run 3, Extract, time 43 min): 480 µg/mL | concentration in sample (Run 3, Extract, time 70 min): 400 µg/mL | concentration in sample (Run 3, Extract, time 74 min): 0 µg/mL | concentration in sample (Run 3, Extract, time 78 min): 550 µg/mL | concentration in sample (Run 3, Extract, time 82 min): 400 µg/mL | concentration in sample (Run 3, Feed, time 0 min): 5470 µg/mL | concentration in sample (Run 3, Raffinate, time 22 min): 6780 µg/mL | concentration in sample (Run 3, Raffinate, time 27 min): 5370 µg/mL | concentration in sample (Run 3, Raffinate, time 31 min): 6420 µg/mL | concentration in sample (Run 3, Raffinate, time 37 min): 6010 µg/mL | concentration in sample (Run 3, Raffinate, time 43 min): 7110 µg/mL | concentration in sample (Run 3, Raffinate, time 70 min): 6840 µg/mL | concentration in sample (Run 3, Raffinate, time 74 min): 7770 µg/mL | concentration in sample (Run 3, Raffinate, time 78 min): 7070 µg/mL | concentration in sample (Run 3, Raffinate, time 82 min): 7290 µg/mL
Compound: CC(=O)O [acetate]

extraction into DME (Run 1, pH greater than 5.5): About half | concentration in sample [1]: 1570 µg/mL | concentration in sample [2]: 1240 µg/mL | concentration in sample [3]: 22090 µg/mL | concentration in sample [4]: 22520 µg/mL | concentration in sample (Run 3, Extract, time 22 min): 3520 µg/mL | concentration in sample (Run 3, Extract, time 27 min): 9290 µg/mL | concentration in sample (Run 3, Extract, time 43 min): 2210 µg/mL | concentration in sample (Run 3, Extract, time 70 min): 1710 µg/mL | concentration in sample (Run 3, Extract, time 74 min): 1380 µg/mL | concentration in sample (Run 3, Extract, time 78 min): 3010 µg/mL | concentration in sample (Run 3, Extract, time 82 min): 1880 µg/mL | concentration in sample (Run 3, Feed, time 0 min): 1710 µg/mL | concentration in sample (Run 3, Raffinate, time 22 min): 50780 µg/mL | concentration in sample (Run 3, Raffinate, time 27 min): 19520 µg/mL | concentration in sample (Run 3, Raffinate, time 31 min): 880 µg/mL | concentration in sample (Run 3, Raffinate, time 37 min): 880 µg/mL | concentration in sample (Run 3, Raffinate, time 43 min): 880 µg/mL | concentration in sample (Run 3, Raffinate, time 70 min): 950 µg/mL | concentration in sample (Run 3, Raffinate, time 74 min): 970 µg/mL | concentration in sample (Run 3, Raffinate, time 78 min): 870 µg/mL | concentration in sample (Run 3, Raffinate, time 82 min): 930 µg/mL
Compound: CCCC(=O)O [butyrate]

distribution coefficients compared (Run 2, isobutanol versus butanol): approximately equal | Ratio of I/N (isobutanol/n-butanol) [1]: 1.16 | concentration in sample [1]: 39300 µg/mL | Ratio of I/N (isobutanol/n-butanol) [2]: 1.15 | concentration in sample [2]: 39690 µg/mL | Ratio of I/N (isobutanol/n-butanol) [3]: 1.04 | concentration in sample [3]: 316670 µg/mL | Ratio of I/N (isobutanol/n-butanol) [4]: 1.03 | concentration in sample [4]: 328990 µg/mL | Ratio of I/N (isobutanol/n-butanol) (Run 3, Extract, time 22 min): 0.98 | concentration in sample (Run 3, Extract, time 22 min): 18650 µg/mL | Ratio of I/N (isobutanol/n-butanol) (Run 3, Extract, time 27 min): 1.10 | concentration in sample (Run 3, Extract, time 27 min): 35800 µg/mL | Ratio of I/N (isobutanol/n-butanol) (Run 3, Extract, time 43 min): 1.07 | concentration in sample (Run 3, Extract, time 43 min): 35340 µg/mL | Ratio of I/N (isobutanol/n-butanol) (Run 3, Extract, time 70 min): 1.05 | concentration in sample (Run 3, Extract, time 70 min): 30950 µg/mL | Ratio of I/N (isobutanol/n-butanol) (Run 3, Extract, time 74 min): 1.02 | concentration in sample (Run 3, Extract, time 74 min): 31830 µg/mL | Ratio of I/N (isobutanol/n-butanol) (Run 3, Extract, time 78 min): 1.01 | concentration in sample (Run 3, Extract, time 78 min): 33190 µg/mL | Ratio of I/N (isobutanol/n-butanol) (Run 3, Extract, time 82 min): 1.02 | concentration in sample (Run 3, Extract, time 82 min): 37480 µg/mL | Ratio of I/N (isobutanol/n-butanol) (Run 3, Feed, time 0 min): 1.24 | concentration in sample (Run 3, Feed, time 0 min): 11650 µg/mL | Ratio of I/N (isobutanol/n-butanol) (Run 3, Raffinate, time 22 min): 1.34 | concentration in sample (Run 3, Raffinate, time 22 min): 2720 µg/mL | Ratio of I/N (isobutanol/n-butanol) (Run 3, Raffinate, time 27 min): 1.22 | concentration in sample (Run 3, Raffinate, time 27 min): 380 µg/mL | Ratio of I/N (isobutanol/n-butanol) (Run 3, Raffinate, time 31 min): 1.28 | concentration in sample (Run 3, Raffinate, time 31 min): 380 µg/mL | Ratio of I/N (isobutanol/n-butanol) (Run 3, Raffinate, time 37 min): 1.29 | concentration in sample (Run 3, Raffinate, time 37 min): 230 µg/mL | Ratio of I/N (isobutanol/n-butanol) (Run 3, Raffinate, time 43 min): 1.42 | concentration in sample (Run 3, Raffinate, time 43 min): 230 µg/mL | Ratio of I/N (isobutanol/n-butanol) (Run 3, Raffinate, time 70 min): 1.37 | concentration in sample (Run 3, Raffinate, time 70 min): 430 µg/mL | Ratio of I/N (isobutanol/n-butanol) (Run 3, Raffinate, time 74 min): 1.45 | concentration in sample (Run 3, Raffinate, time 74 min): 480 µg/mL | Ratio of I/N (isobutanol/n-butanol) (Run 3, Raffinate, time 78 min): 1.41 | concentration in sample (Run 3, Raffinate, time 78 min): 480 µg/mL | Ratio of I/N (isobutanol/n-butanol) (Run 3, Raffinate, time 82 min): 1.44 | concentration in sample (Run 3, Raffinate, time 82 min): 480 µg/mL
Compound: CC(C)CO [isobutanol, 2-methyl-1-propanol]

concentration in sample [1]: 4740 µg/mL | concentration in sample [2]: 5780 µg/mL | concentration in sample [3]: 0 µg/mL | concentration in sample [4]: 0 µg/mL | concentration in sample (Run 3, Extract, time 22 min): 1460 µg/mL | concentration in sample (Run 3, Extract, time 27 min): 1440 µg/mL | concentration in sample (Run 3, Extract, time 43 min): 6200 µg/mL | concentration in sample (Run 3, Extract, time 70 min): 3940 µg/mL | concentration in sample (Run 3, Extract, time 74 min): 3870 µg/mL | concentration in sample (Run 3, Extract, time 78 min): 4810 µg/mL | concentration in sample (Run 3, Extract, time 82 min): 4950 µg/mL | concentration in sample (Run 3, Feed, time 0 min): 48470 µg/mL | concentration in sample (Run 3, Raffinate, time 22 min): 1390 µg/mL | concentration in sample (Run 3, Raffinate, time 27 min): 950 µg/mL | concentration in sample (Run 3, Raffinate, time 31 min): 47660 µg/mL | concentration in sample (Run 3, Raffinate, time 37 min): 41230 µg/mL | concentration in sample (Run 3, Raffinate, time 43 min): 48870 µg/mL | concentration in sample (Run 3, Raffinate, time 70 min): 42100 µg/mL | concentration in sample (Run 3, Raffinate, time 74 min): 44360 µg/mL | concentration in sample (Run 3, Raffinate, time 78 min): 48180 µg/mL | concentration in sample (Run 3, Raffinate, time 82 min): 43140 µg/mL
Compound: sugar
extraction into DME (Run 2): a significant portion of the sugar was not extracted
